As a reminder, the ED50 is the midpoint of the dose-response relation. Low readings indicate greater potency, high ones weaker potency.

Bounds are passed on as bounds.

For one test, the system named is mouse macrophage cells. In words: reduction of the inhibition of migration of incubated macrophage cells after oral dosing (similar to Likhite et al.). The class given is in vivo. The note with it: mice, twice administered orally, one hour before and four hours after antigen, dose each time that would reduce by 50% the inhibition of macrophage migration. How it is done: For example, from tests in mice it was calculated that compounds of formula I, when twice administered orally, one hour before and four hours after the administration of antigen, each time at the doses shown in the following Table I, would reduce by 50% the inhibition of migration of incubated mouse macrophage cells measured in a manner similar to that described by Likhite et al., Cellular Immunology, Vol. 5, 1972, page 377. This is a measure of antagonism or reduction of the levels of lymphokines and is indicative of utility in the treatment of arthritic patients.

The next test relates to lipoxygenase. In words: lipoxygenase inhibition in vitro. The class given is biochemical. Particulars: concentration 0.0001M, 100 µM.

`CCOC(=O)C(=CNc1ccc2c(c1)c(C)cc1nnc(-c3ccccc3)n12)C(=O)OCC` [A, 7-[2,2-bis(ethoxycarbonyl)ethen-l-ylamino]-5-methyl-1-phenyl-1,2,4-triazolo[4,3-a]quinoline] displayed an ED50 in the test on mouse macrophage cells of 7 mg/kg. Besides, the “% inhibition of lipoxygenase” value in the test with lipoxygenase was 100%.

With `CCOC(=O)C(=CNc1ccc2c(c1)c(C)cc1nnc(-c3ccc(C)cc3)n12)C(=O)OCC` [B, 7-[2,2-bis(ethoxycarbonyl)ethen-l-ylamino]-5-methyl-l-(4-methylphenyl)-1,2,4-triazolo-[4,3-a]quinoline], the “% inhibition of lipoxygenase” value with lipoxygenase stood at 100%. `CCOC(=O)C(=CNc1ccc2c(c1)c(C)cc1nnc(-c3ccc(OC)cc3)n12)C(=O)OCC` [C, 7-[2,2-bis(ethoxycarbonyl)ethen-l-ylamino]-1-(4-methoxyphenyl)-5-methyl-1,2,4-triazolo-[4,3-a]quinoline] displayed an ED50 in the test on mouse macrophage cells of less than 10 mg/kg. Regarding `CCOC(=O)C(=CNc1ccc2c(c1)c(C)cc1nnc(-c3ccc(C(C)(C)C)cc3)n12)C(=O)OCC` [D, 1-(4-tert-butylphenyl)-7-[2,2-bis(ethoxycarbonyl)ethen-1-ylamino)-5-methyl-1,2,4-triazolo[4,3-a]quinoline], the “% inhibition of lipoxygenase” value with lipoxygenase is listed as 98%. Still for that read-out and setting: next, `CCOC(=O)C(=CNc1ccc(-c2nnc3cc(C)c4ccccc4n23)cc1)C(=O)OCC` [E, 1-[4-{2,2-bis(ethoxycarbonyl)ethen-1-yl-amino}phenyl]-5-methyl-1,2,4-triazolo[4,3-a]-quinoline]: 50%.

The values are drawn from patent EP0174833A2, “Triazoloquinoline derivatives” (MAY & BAKER LIMITED, priority 1984, dated 1986).
